Assay [1] deals with GDP-bound HRAS wild-type protein (Homo sapiens, UniProt P01112). Kind of assay: Binding to HRAS by surface plasmon resonance (SPR), Single Cycle Kinetics. Particulars: SPR. For orientation: SPR reads the build-up and loss of mass on a sensor chip optically.
The target in assay [2] is GDP-bound NRAS wild-type protein (Homo sapiens, UniProt P01111). Kind of assay: Binding to NRAS by surface plasmon resonance (SPR), Single Cycle Kinetics. Particulars: SPR.
Setting [3] is: GDP-bound HRAS wild-type vs GDP-bound KRAS wild-type.
Where [4] appears, read: GDP-bound NRAS wild-type vs GDP-bound KRAS wild-type.
Where [5] appears, read: KD ratio, GDP-bound HRAS wild-type vs GDP-bound KRAS wild-type.
Setting [6] is: KD ratio, GDP-bound NRAS wild-type vs GDP-bound KRAS wild-type.

Where a SMILES comes first, the peptide text is derived from it. Bridges are numbered along the chain shown (N, C = ends). [ ]: non-standard residue; d: D form. hPhe(3-Cl-4-CF3) = N[C@@H](CCc1ccc(C(F)(F)F)c(Cl)c1)C(=O)O; NPrPhe(4-CF3) = CCCN[C@@H](Cc1ccc(C(F)(F)F)cc1)C(=O)O; NMeGly(cPent) = CN[C@H](C(=O)O)C1CCCC1; NMeL = CN[C@@H](CC(C)C)C(=O)O; NMeA = CN[C@@H](C)C(=O)O; Aze = O=C(O)[C@@H]1CCN1; Ac4c = NC1(C(=O)O)CCC1; Sar = CNCC(=O)O

This is an account of results in US20250230193A1, “CYCLIC COMPOUND HAVING SELECTIVE KRAS INHIBITORY EFFECT ON HRAS AND NRAS” (CHUGAI SEIYAKU KABUSHIKI KAISHA, priority 2022, published 2025).

GDP-bound HRAS wild-type protein, sequence (P01112 whole entry): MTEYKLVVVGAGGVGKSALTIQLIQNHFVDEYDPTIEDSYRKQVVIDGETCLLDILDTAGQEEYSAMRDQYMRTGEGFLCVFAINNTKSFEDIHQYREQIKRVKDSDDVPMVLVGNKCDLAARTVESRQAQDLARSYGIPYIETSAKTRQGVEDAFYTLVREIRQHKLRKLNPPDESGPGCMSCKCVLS
GDP-bound NRAS wild-type protein, sequence (P01111 whole entry): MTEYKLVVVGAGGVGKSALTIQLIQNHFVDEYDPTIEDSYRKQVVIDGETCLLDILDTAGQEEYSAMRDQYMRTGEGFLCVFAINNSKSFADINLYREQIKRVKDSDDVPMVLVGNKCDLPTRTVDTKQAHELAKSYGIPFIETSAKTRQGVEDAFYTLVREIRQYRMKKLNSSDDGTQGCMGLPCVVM

In the case of `CCO[C@@H]1C[C@H]2C(=O)NC3(CC(C)(C)C3)C(=O)N(C)[C@@H](C(CC)CC)C(=O)N(C)[C@H](C(=O)N3CCCC3)CC(=O)N(C)[C@@H](C)C(=O)N[C@@H]([C@@H](C)CC)C(=O)N(C)CC(=O)N(C)[C@H]3C/C=C\CCN(C3=O)[C@@H](Cc3ccc(C(F)(F)F)cc3)C(=O)N(C)CC(=O)N[C@@H](CCc3ccc(C(F)(F)F)c(OC)c3)C(=O)N2C1` [PP2163], in assay [1] (setting [3]), the “HRAS/KRAS (ratio of KD value with respect to HRAS to KD value with respect to KRAS)” value was “A (a compound having 10 or more and less than 20 is denoted as A)”. The “NRAS/KRAS (ratio of KD value with respect to NRAS to KD value with respect to KRAS)” value in assay [2] (setting [4]) is “A (a compound having 10 or more and less than 20 is denoted as A)”.
With `CCC[C@H]1C(=O)N[C@@H]([C@@H](C)CC)C(=O)N(C)CC(=O)N(C)[C@H]2C/C=C\CCN(C2=O)[C@@H](Cc2ccc(C(F)(F)F)cc2)C(=O)N(C)CC(=O)N[C@@H](CCc2cc(F)c(C(F)(F)F)c(F)c2)C(=O)N2C[C@H](F)C[C@H]2C(=O)NC2(CC(C)(C)C2)C(=O)N(C)[C@@H](C2CCCC2)C(=O)N(C)[C@H](C(=O)N(C)C)CC(=O)N1C` [PP1689], the “HRAS/KRAS (ratio of KD value for HRAS to KD value for KRAS)” value in assay [1] (setting [5]) is “B (a compound having 3 or more and less than 10 is denoted as B)”. In assay [2] (setting [6]), the “NRAS/KRAS (ratio of KD value for NRAS to KD value for KRAS)” value is “A (a compound having 10 or more and less than 20 is denoted as A)”.
Regarding `CCO[C@@H]1C[C@H]2C(=O)NC3(CCC3)C(=O)N(C)[C@@H](C3CCCC3)C(=O)N(C)[C@H](C(=O)N(C)C)CC(=O)N(C)[C@@H](CC)C(=O)N[C@@H]([C@@H](C)CC)C(=O)N3C[C@H](OCC)C[C@H]3C(=O)N(C)[C@H]3C/C=C\CCN(C3=O)[C@@H](Cc3ccc(C(F)(F)F)cc3)C(=O)N(C)CC(=O)N[C@@H](CCc3cc(F)c(C(F)(F)F)c(F)c3)C(=O)N2C1` [PP1057], the “HRAS/KRAS (ratio of KD value with respect to HRAS to KD value with respect to KRAS)” value in assay [1] (setting [5]) was “B (a compound having 3 or more and less than 10 is denoted as B)”. Moreover, in assay [2] (setting [6]), the “NRAS/KRAS (ratio of KD value with respect to NRAS to KD value with respect to KRAS)” value was “A (a compound having 10 or more and less than 20 is denoted as A)”.
In the case of `CC[C@H](C)[C@@H]1NC(=O)[C@H](CC(C)C)N(C)C(=O)C[C@@H](C(=O)N(C)C)N(C)C(=O)[C@H](C2CCCC2)N(C)C(=O)C2(CCC2)NC(=O)[C@@H]2CC(F)(F)CN2C(=O)[C@H](CCc2ccc(C(F)(F)F)c(Cl)c2)NC(=O)CN(C)C(=O)[C@H](Cc2ccc(F)cc2)N2CCCCC[C@@H](C2=O)N(C)C(=O)CN(C)C1=O` [PP0973], the “HRAS/KRAS (ratio of KD value with respect to HRAS to KD value with respect to KRAS)” value in assay [1] (setting [5]) was “B (a compound having 3 or more and less than 10 is denoted as B)”. For the same molecule, the “NRAS/KRAS (ratio of KD value with respect to NRAS to KD value with respect to KRAS)” value in assay [2] (setting [6]) was “B (a compound having 3 or more and less than 10 is denoted as B)”.
Take `CCCN1C(=O)[C@@H]2CCN2C(=O)[C@H](C)N(C)C(=O)[C@H]([C@@H](C)CC)NC(=O)[C@H](CC(C)C)N(C)C(=O)C[C@@H](C(=O)N(C)C)NC(=O)[C@H](C2CCCC2)N(C)C(=O)C2(CCC2)NC(=O)[C@@H]2CCCN2C(=O)[C@H](CCc2ccc(C(F)(F)F)c(Cl)c2)NC(=O)CN(C)C(=O)[C@@H]1Cc1ccc(C(F)(F)F)cc1` [PP0380] ([NMeL]I[NMeA][Aze][NPrPhe(4-CF3)][Sar][hPhe(3-Cl-4-CF3)]P[Ac4c][NMeGly(cPent)]D-NMe2; lactam N-11): in assay [1] (KD ratio HRAS/KRAS), the “HRAS/KRAS (ratio of KD for GDP-bound HRAS wild-type to KD for KRAS)” value is “B (a compound having 3 or more and less than 10 is denoted as B)”. The “NRAS/KRAS (ratio of KD for GDP-bound NRAS wild-type to KD for KRAS)” value in assay [2] (KD ratio NRAS/KRAS) is “C (A compound having a KD ratio of 0.1 or more and less than 3 is denoted as C)”.
`C=CC[C@H]1C(=O)N[C@@H]([C@@H](C)CC)C(=O)N(C)CC(=O)N(C)[C@H]2CCCCN(C2=O)[C@@H](Cc2ccc(C(F)(F)F)cc2)C(=O)N(C)CC(=O)N[C@@H](CCc2cc(F)c(C(F)(F)F)c(F)c2)C(=O)N2C[C@H](OCC)C[C@H]2C(=O)NC2(CCC2)C(=O)N(C)[C@@H](C2CCCC2)C(=O)N(C)[C@H](C(=O)N2CCOCC2)CC(=O)N1C` [PP0710]: in assay [1] (KD ratio HRAS/KRAS), the “HRAS/KRAS (ratio of KD value with respect to GDP-bound HRAS wild-type protein to KD value with respect to KRAS)” value is “B (a compound having 3 or more and less than 10 is denoted as B)”. For the same molecule, in assay [2] (KD ratio NRAS/KRAS), the “NRAS/KRAS (ratio of KD value with respect to GDP-bound NRAS wild-type protein to KD value with respect to KRAS)” value is “C (A compound having a KD ratio of 0.1 or more and less than 3 is denoted as C)”.
As to `CCC[C@@H]1C[C@H]2C(=O)NC3(CC(C)(C)C3)C(=O)N(C)[C@@H](C3CCCC3)C(=O)N(C)[C@H](C(=O)N(C)C)CC(=O)N(C)[C@@H](COC)C(=O)N[C@@H]([C@@H](C)CC)C(=O)N(C)CC(=O)N(C)[C@H]3C/C=C\CCN(C3=O)[C@@H](Cc3ccc(C(F)(F)F)cc3)C(=O)N(C)CC(=O)N[C@@H](CCc3ccc(C(F)(F)F)c(Cl)c3)C(=O)N2C1` [PP2275], the “HRAS/KRAS (ratio of KD value with respect to HRAS to KD value with respect to KRAS)” value in assay [1] (setting [3]) was “A (a compound having 10 or more and less than 20 is denoted as A)”. For the same molecule, the “NRAS/KRAS (ratio of KD value with respect to NRAS to KD value with respect to KRAS)” value in assay [2] (setting [4]) was “A (a compound having 10 or more and less than 20 is denoted as A)”.
